The source of these data is US10881110B2, “Herbicidal compositions comprising isoxazolo[5,4-b]pyridines” (BASF SE, priority 2014, dated 2021).

Holding throughout (assay): greenhouse post-emergence herbicidal test
The subject of one test is POLCO. The test is classed as in vivo, Polygonum convolvulus. More on the design: key to herbicidal activity against POLCO found: rating on a scale from 0 to 100. How it is done: (§1) The culture containers used were plastic pots containing medium loamy sand with approximately 4.6% of humus and 69.9% sand as substrate. The seeds of the test plants were sown separately for each species.
(§2) For the post-emergence treatment, the test plants were grown to a plant height of from 1 to 15 cm, depending on the plant habit, and only then treated with the active compounds which had been suspended or emulsified in water. To this end, the test plants were either sown directly, and grown in the same containers, or they were first grown separately as seedlings and transplanted into the test containers a few days prior to treatment.
(§3) Depending on the species, the plants were kept at 10-25° C. and 20-35° C., respectively.
(§4) The test period extended over 1 to 3 weeks. During this time, the plants were tended and their response to the individual treatments was evaluated 20 days after treatment except mentioned otherwise.
(§5) Evaluation was carried out using a scale from 0 to 100. 100 means no emergence of the plants, or complete destruction of at least the above-ground parts, and 0 means no damage or normal course of growth.
(§6) The respective stated components A and B, and, if appropriate, C, were formulated as a 10% by weight strength emulsion concentrate and, with addition of the amount of solvent system, introduced into the spray liquor used for applying the active compound. In the examples, the solvent used was water.
(§7) In the examples below, using the method of S. R. Colby (1967) “Calculating synergistic and antagonistic responses of herbicide combinations”, Weeds 15, p. 22 ff., the value E, which is expected if the activity of the individual active compounds is only additive, was calculated. E=X+Y−(X·Y/100)

A further test relates to PAPRH. In kind it is in vivo, Papaver rhoeas. More on the design: key: rating on a scale from 0 to 100. How it is done:
as §1, §2, §3, §4, §5, §6, §7

In the next test the test system is IPOHE. The test is classed as in vivo, Ipomoea hederacea. More on the design: key to herbicidal activity against IPOHE found: rating on a scale from 0 to 100. How it is done:
as §1, §2, §3, §4, §5, §6, §7

Another test deals with ERICA. The test is classed as in vivo, Conyza canadensis. More on the design: key to herbicidal activity against ERICA found: rating on a scale from 0 to 100. Conditions: post emergence. How it is done: as §1, §2, §3, §4, §5, §6, §7
In a further test the test system is MATCH. In kind it is in vivo, Matricaria recutita. More on the design: key to herbicidal activity against MATCH found: rating on a scale from 0 to 100. How it is done:
as §1, §2, §3, §4, §5, §6, §7

The test system of another test is GERDI. The test is classed as in vivo, Geranium dissectum. More on the design: key to herbicidal activity against GERDI found: rating on a scale from 0 to 100. The following applies: for herbicidal activity against GERDI found: I.1 62.5 g/ha. As to the method: as §1, §2, §3, §4, §5, §6, §7
In the next test the test system is ALOMY. The test is classed as in vivo, Alopecurus myosuroides. More on the design: key to herbicidal activity against ALOMY found: rating on a scale from 0 to 100. The following applies: for herbicidal activity against ALOMY found: I.1 62.5 g/ha. As to the method:
as §1, §2, §3, §4, §5, §6, §7

In a further test the test system is APESV. In kind it is in vivo, Apera spica-venti. More on the design: key to herbicidal activity against APESV found: rating on a scale from 0 to 100. Conditions: post emergence. How it is done:
as §1, §2, §3, §4, §5, §6, §7

Another test has as its system VIOAR. In kind it is in vivo, Viola arvensis. More on the design: key to herbicidal activity against VIOAR found / herbicidal activity against VIOLA found: rating on a scale from 0 to 100. How it is done: as §1, §2, §3, §4, §5, §6, §7
Another test has as its system ECHCG. The test is classed as in vivo, Echinochloa crus-galli. More on the design: key to herbicidal activity against ECHCG found / herbicidal activity against ECHCH found: scale 0 to 100. How it is done:
as §1, §2, §3, §4, §5, §6, §7

Another test has as its system KCHSC. The test is classed as in vivo, Kochia scoparia. More on the design: key to herbicidal activity against KCHSC found: rating on a scale from 0 to 100. Conditions: for herbicidal activity against KCHSC found: post emergence, B.88 1 g/ha a.i. How it is done: as §1, §2, §3, §4, §5, §6, §7
The next test relates to ABUTH. In kind it is in vivo, Abutilon theophrast. More on the design: key to herbicidal activity against ABUTH found: rating on a scale from 0 to 100. The following applies: for herbicidal activity against ABUTH found: post emergence. How it is done: as §1, §2, §3, §4, §5, §6, §7
Another test has as its system GALAP. The test is classed as in vivo, Galium aparine. The following applies: Galium aparine, post-emergence, 480 h, read-out: herbicidal activity against GALAP found. How it is done: as §1, §2, §3, §4, §5, §6, §7
Setting [1] is: I.1 62.5 g/ha, B.57 2 g/ha a.i.
Setting [2] is: post emergence, a.i. g/ha: I.1 20.8, B.79 25, 20 days after treatment.
The mark [3] stands for this setting: post emergence, a.i. g/ha: I.1 62.5, B.79 25, 20 days after treatment.
Setting [4] is: post emergence, B.88 1 g/ha a.i.
Where [5] appears, read: post emergence, B.88 2 g/ha a.i.
The mark [6] stands for this setting: I.1 31.25 g/ha, B.88 1 g/ha a.i.
The mark [7] stands for this setting: I.1 31.25 g/ha, B.88 2 g/ha a.i.
Setting [8] is: I.1 62.5 g/ha, B.88 1 g/ha a.i.
The mark [9] stands for this setting: I.1 62.5 g/ha, B.88 2 g/ha a.i.
Where [10] appears, read: Geranium dissectum, post-emergence, 480 h, read-out: herbicidal activity against GERDI found.
Setting [11] is: post emergence, applied alone at 15 g/ha a.i.

For `COc1ncc(F)c2nc(S(=O)(=O)Nc3c(F)cccc3F)nn12` [B.26, florasulam], the “herbicidal activity against POLCO found” value with POLCO (post emergence, 2 g/ha a.i.) turned out to be 85. Also, the “herbicidal activity against PAPRH found” value with PAPRH (2 g/ha a.i.) is given as 98.

As for `COc1cc(OC)n2nc(NS(=O)(=O)c3c(C(F)(F)F)ccnc3OC)nc2n1` [B.57, pyroxsulam], the “herbicidal activity against IPOHE found” value with IPOHE (post emergence, I.1 62.5 g/ha, B.57 1 g/ha a.i.) stood at 80. Further, in the test on PAPRH (setting [1]), the “herbicidal activity against PAPRH found” value turned out to be 0. Also, the “herbicidal activity against ERICA found” value in the test with ERICA (setting [1]) was determined as 75.

On to `CCS(=O)(=O)c1cccnc1S(=O)(=O)NC(=O)Nc1nc(OC)cc(OC)n1` [B.59, rimsulfuron], for which the pest or weed control at 0.5 g/ha is 75% with MATCH (Matricaria chamomilla, post-emergence, 480 h, post emergence, 0.5 g/ha a.i., read-out: herbicidal activity against MATCH found); 75% with GERDI (Geranium dissectum, post-emergence, 480 h, post emergence, 0.5 g/ha a.i., read-out: herbicidal activity against GERDI found); 90% in the test on IPOHE (Ipomoea hederacea, post-emergence, 480 h, post emergence, 0.5 g/ha a.i., read-out: herbicidal activity against IPOHE found); 65% in the test on ERICA (Erigeron canadensis, post-emergence, 480 h, 0.5 g/ha a.i., read-out: herbicidal activity against ERICA found). Besides, in the test on PAPRH (0.5 g/ha a.i.), the “herbicidal activity against PAPRH found” value worked out at 65.

On to `CCS(=O)(=O)c1nc2ccccn2c1S(=O)(=O)NC(=O)Nc1nc(OC)cc(OC)n1` [B.60, sulfosulfuron], for which the pest or weed control at 3 g/ha with ALOMY (Alopecurus myosuroides, post-emergence, 480 h, post emergence, 3 g/ha a.i., read-out: herbicidal activity against ALOMY found) stood at 60%; with APESV (Apera spica-venti, post-emergence, 480 h, 3 g/ha a.i., read-out: herbicidal activity against APESV found) it was 60%; in the test with POLCO (Fallopia convolvulus, post-emergence, 480 h, post emergence, 3 g/ha a.i., read-out: herbicidal activity against POLCO found) it was 90%; in the test on VIOAR (Viola arvensis, post-emergence, post emergence, 3 g/ha a.i., read-out: herbicidal activity against VIOAR found) it was 65%; in the test on ERICA (Erigeron canadensis, post-emergence, 480 h, 3 g/ha a.i., read-out: herbicidal activity against ERICA found) it was 75%. In the test on PAPRH (3 g/ha a.i.), the “herbicidal activity against PAPRH found” value is 90.

On to `CSc1nnc(C(C)(C)C)c(=O)n1N` [B.79, metribuzin], for which the “herbicidal activity against MATCH found” value with MATCH (setting [2]) is recorded as 65%. The “herbicidal activity against POLCO found” value in the test on POLCO (setting [2]) and with POLCO (setting [3]) was 20% throughout. The “herbicidal activity against ECHCG found” value in the test on ECHCG (setting [3]) came to 20%.

With `C#CCN1C(=O)COc2cc(F)c(N3C(=O)C4=C(CCCC4)C3=O)cc21` [B.88, flumioxazin], the “herbicidal activity against GERDI found” value in the test with GERDI (setting [4]) and in the test on GERDI (setting [5]) was 70 throughout. In addition, the “herbicidal activity against KCHSC found” value with KCHSC (I.1 15.62 g/ha), in the test with KCHSC (I.1 31.25 g/ha) and with KCHSC (I.1 62.5 g/ha) was 85 throughout. In the test with ABUTH (setting [6]), the “herbicidal activity against ABUTH found” value was determined as 90. In addition, the “herbicidal activity against ALOMY found” value stood at 0 with ALOMY (setting [4]) and 20 in the test with ALOMY (setting [5]). Besides, the “herbicidal activity against APESV found” value with APESV (I.1 15.62 g/ha, B.88 1 g/ha a.i.) amounted to 25; in the test on APESV (setting [6]) it was 25; in the test on APESV (setting [7]), 65; with APESV (setting [8]), 25; with APESV (setting [9]), 65. Also, the “herbicidal activity against PAPRH found” value with PAPRH (I.1 15.62 g/ha, B.88 2 g/ha a.i.) amounted to 75; in the test with PAPRH (setting [6]), 25; in the test on PAPRH (setting [7]), 75; with PAPRH (setting [8]), 25; in the test on PAPRH (setting [9]), 75.

In the case of `CP(=O)(O)CCC(N)C(=O)O` (stereo not shown) [B.120, glufosinate-ammonium], the pest or weed control at 62.5 g/ha in the test on MATCH (Matricaria chamomilla, post-emergence, 480 h, read-out: herbicidal activity against MATCH found) came out at 55%; with GERDI (setting [10]) it was 40%; in the test on KCHSC (Bassia scoparia, post-emergence, 480 h, read-out: herbicidal activity against KCHSC found), 45%; in the test on IPOHE (Ipomoea hederacea, post-emergence, 480 h, read-out: herbicidal activity against IPOHE found), 80%. Further, the pest or weed control at 125 g/ha was determined as 90% in the test with GERDI (setting [10]); 70% in the test on ABUTH (Abutilon theophrasti, post-emergence, 480 h, read-out: herbicidal activity against ABUTH found); 65% with POLCO (Fallopia convolvulus, post-emergence, 480 h, read-out: herbicidal activity against POLCO found); 80% in the test with GALAP; 15% in the test on VIOAR (Viola arvensis, post-emergence, read-out: herbicidal activity against VIOAR found). The “herbicidal activity against PAPRH found” value in the test with PAPRH (62.5 g/ha a.i.) was determined as 30.

On to `COC(=O)c1c(Cl)nn(C)c1S(=O)(=O)NC(=O)Nc1nc(OC)cc(OC)n1` [halosulfuron-methyl], for which the pest or weed control at 5 g/ha in the test with ALOMY (Alopecurus myosuroides, post-emergence, 480 h, read-out: herbicidal activity against ALOMY found) was 10%; in the test with ECHCG (Echinochloa crus-galli, post-emergence, 480 h, read-out: herbicidal activity against ECHCG found) it was 45%.

As for `CCOC(=O)[C@@H](C)Oc1ccc(Oc2cnc3cc(Cl)ccc3n2)cc1` [quizalofop-p-ethyl], in the test on MATCH (setting [11]), the “herbicidal activity against MATCH found” value is given as 0. Further, the “herbicidal activity against ABUTH found” value was 15 in the test on ABUTH (applied alone at 7.5 g/ha a.i.) and 25 with ABUTH (applied alone at 15 g/ha a.i.). The “herbicidal activity against PAPRH found” value in the test on PAPRH (applied alone at 15 g/ha a.i.) came out at 50. In addition, the “herbicidal activity against VIOAR found” value was determined as 0 in the test with VIOAR (post emergence, applied alone at 7.5 g/ha a.i.) and 0 in the test with VIOAR (setting [11]). The results for the “herbicidal activity against ERICA found” value in the test with ERICA (applied alone at 7.5 g/ha a.i.) and in the test on ERICA (applied alone at 15 g/ha a.i.) were 0 and 20, respectively.
